The record followed here is ChEMBL document CHEMBL1201862, “PubChem BioAssay data set” (2004).

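The compound was tested at five concentrations on cells cultured in 96-well plates, with a 48-hour exposure period. At the GI50, growth is halved.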 Calls of active or inactive are those of the source. No stated cut-off is given here; in the data, active = GI50 up to about 1.1 µM and inactive = higher. Where only a bound is given, the exact number is not on record here.

Common to all, as to test: NCI tumour cell line growth inhibition, 48 h
The subject of experiment [1] is HOP-62.
Experiment [2] relates to NCI-H460.
Experiment [3] concerns DU-145.
In experiment [4] the test system is KM12.
Experiment [5] concerns SK-MEL-5.
Experiment [6] concerns K562.
The test system of experiment [7] is SF-268.
Experiment [8] relates to ACHN.
Experiment [9] relates to HCC 2998.
The test system of experiment [10] is NCI-H23.
The subject of experiment [11] is SF-295.
In experiment [12] the test system is SK-MEL-2.
The test system of experiment [13] is SK-MEL-28.
The subject of experiment [14] is OVCAR-4.
Experiment [15] has as its system RXF 393.
Experiment [16] relates to IGROV-1.

`COc1cc2c[n+](C)c3c4cc(OC)c(OC)cc4c(OC)cc3c2cc1OC`: the GI50 in experiment [1] was 16.4 µM (inactive); in experiment [2], 17.4 µM (inactive); in experiment [3], 8.45 µM (inactive); in experiment [4], 5.27 µM (inactive); in experiment [5] it was 2.77 µM (inactive); in experiment [6], 4.03 µM (inactive). For the same compound, the GI50 in experiment [7] is 0.0689 µM (active); in experiment [8], > 100 µM (inactive); in experiment [9], 6.01 µM (inactive); in experiment [10] it was 5.58 µM (inactive); in experiment [11], 20 µM (inactive); in [12], 15.8 µM (inactive). The GI50 in [13] is 6.43 µM (inactive); in experiment [14], 8.02 µM (inactive); in [15] it was 8.83 µM (inactive).
Regarding `CC1(C)C2CCC(N)(C2)C1N` (stereo not given), the GI50 in experiment [1], in experiment [2], in experiment [3], in [16], in experiment [4] and in [5] was > 100 µM (inactive) in each case. Besides, the GI50 in experiment [6], in [8], in [9], in experiment [10], in experiment [11] and in [12] was > 100 µM (inactive) each time. Also, the GI50 in [13], in experiment [14] and in experiment [15] was > 100 µM (inactive) throughout.
Consider `COc1ccccc1N1C(=O)/C(=C\c2cc(OC)c(OC)c(OC)c2)S(=O)(=O)C1c1ccccc1` (stereo not given), for which the GI50 is 37.7 µM (inactive) in experiment [1]; 61.1 µM (inactive) in experiment [2]; 62.1 µM (inactive) in experiment [3]; 28.6 µM (inactive) in experiment [4]; 26.4 µM (inactive) in experiment [5]; 28.6 µM (inactive) in experiment [6]. For the same compound, the GI50 in experiment [7] was 44.4 µM (inactive); in experiment [8], 41.2 µM (inactive); in [9], 79.4 µM (inactive); in [10], 33.9 µM (inactive); in experiment [11], 23.8 µM (inactive); in experiment [12], 26.9 µM (inactive). Also, the GI50 in experiment [13] was 27.4 µM (inactive); in experiment [14], 39.9 µM (inactive); in experiment [15], 10.6 µM (inactive).
Regarding `C=C1C(OC)=C(OC)C(=O)c2[nH]c3c(OC)cc([N+](=O)[O-])cc3c21`, the GI50 in [1] is 85.7 µM (inactive); in experiment [2], > 100 µM (inactive); in [3], > 100 µM (inactive); in experiment [16], > 100 µM (inactive); in experiment [4], > 100 µM (inactive); in experiment [5], > 100 µM (inactive). For the same compound, the GI50 in experiment [6], in experiment [7], in [8], in experiment [9], in experiment [10] and in [11] was > 100 µM (inactive) in each case. The GI50 is > 100 µM (inactive) in [12], > 100 µM (inactive) in [13], > 100 µM (inactive) in experiment [14] and 37 µM (inactive) in experiment [15].
For `COc1cc2c(cc1NC(=O)c1ccccc1)c1c(n2S(=O)(=O)c2ccccc2)CCN(S(=O)(=O)c2ccccc2)C1`, the GI50 in experiment [1], in experiment [2], in [3], in experiment [16], in experiment [4] and in [5] was > 100 µM (inactive) in each case. The GI50 in experiment [6], in experiment [7], in experiment [8], in experiment [9], in experiment [10] and in experiment [12] was > 100 µM (inactive) throughout. Also, the GI50 in experiment [13], in experiment [14] and in experiment [15] was > 100 µM (inactive) throughout.
Turning to `O=C(CC(=O)Nc1ccccc1Cl)NNC(Sc1ccccc1)c1cc(/N=N/c2ccc(Br)cc2)ccc1O` (stereo not given), the GI50 was 2.56 µM (inactive) in experiment [1]; 0.625 µM (active) in experiment [2]; 2.28 µM (inactive) in experiment [3]; 2.71 µM (inactive) in experiment [16]; 1.35 µM (inactive) in [4]; 1.07 µM (active) in [5]. In addition, the GI50 in [6] is 2.31 µM (inactive); in experiment [7], 0.74 µM (active); in experiment [8], 1.36 µM (inactive); in experiment [9], 2.81 µM (inactive); in experiment [10], 1.85 µM (inactive); in experiment [11], 1.88 µM (inactive). Further, the GI50 is 3.3 µM (inactive) in [12], 2.69 µM (inactive) in experiment [13], 1.86 µM (inactive) in experiment [14] and 1.53 µM (inactive) in experiment [15].
For the compound `O=C1Nc2cccc(C(F)(F)F)c2/C1=N/Nc1ccccc1[N+](=O)[O-]`, the GI50 is 25.1 µM (inactive) in experiment [1]; 17.8 µM (inactive) in [2]; 33 µM (inactive) in experiment [3]; 0.404 µM (active) in experiment [16]; 5.97 µM (inactive) in experiment [4]; 21.4 µM (inactive) in experiment [5]. The GI50 is 17 µM (inactive) in experiment [6]; 40.9 µM (inactive) in experiment [7]; 16.1 µM (inactive) in [8]; 28.7 µM (inactive) in experiment [9]; 22.1 µM (inactive) in [10]; 16.4 µM (inactive) in experiment [11]. Moreover, the GI50 in experiment [12] was > 100 µM (inactive); in experiment [13] it was 63.5 µM (inactive); in [14], 16.9 µM (inactive); in experiment [15], > 100 µM (inactive).
Regarding `CC1=CC(O)C(C(O)(C(F)(F)F)C(F)(F)F)C(C)(C)C1` (stereo not given), the GI50 in [1] was > 10 µM (inactive); in experiment [2] it was > 10 µM (inactive); in [3] it was > 10 µM (inactive); in experiment [16], 0.188 µM (active); in [4], > 10 µM (inactive); in experiment [5] it was 0.0371 µM (active). The GI50 in [6], in experiment [7], in experiment [8], in experiment [9], in [10] and in [11] was > 10 µM (inactive) in each case. The GI50 in experiment [12], in experiment [13], in [14] and in experiment [15] was > 10 µM (inactive) in each case.
On to `CCCCCCCCCCCCCCCCCCNc1ccn(C2OC(COP(=O)(O)OCC3OC(n4cc(C)c(=O)[nH]c4=O)CC3F)C(O)C2O)c(=O)n1` (stereo not given), for which the GI50 in experiment [1] is 9.75 µM (inactive); in experiment [2], 7.41 µM (inactive); in experiment [3] it was 11.4 µM (inactive); in experiment [16], 5.78 µM (inactive); in experiment [4], 5.22 µM (inactive); in experiment [5], 9.89 µM (inactive). Also, the GI50 in experiment [6] is 8.55 µM (inactive); in experiment [7], 8.59 µM (inactive); in experiment [8], 13 µM (inactive); in experiment [9], 5.7 µM (inactive); in [10] it was 8.65 µM (inactive); in experiment [11], 9.89 µM (inactive). Moreover, the GI50 is 9.14 µM (inactive) in [12], 8.87 µM (inactive) in [13], 9.02 µM (inactive) in experiment [14] and 1.67 µM (inactive) in [15].
